Patent publication US7169813B2, “4-oxo-fenretinide, administered alone and in combination with fenretinide, as preventive and therapeutic agent for cancer” (Fondazione IRCCS “Istituto Nazionale Dei Tumori”, priority 2004, dated 2007)
Like-named read-outs stand apart in the source and are kept apart here.

How the values were obtained:
SK-N-SH = test: Growth inhibition (sulforhodamine B assay); format: cell-based, human; settings: for IC50: Homo sapiens, 72 h, read-out: 50% Inhibitory Concentrations (IC50) at 72 h
Procedure: (§1) The following human breast tumor cell lines, obtained from Dr. R. Sutherland (Garvan Institute, Sydney, Australia) were tested: T-47D, BT-20 and MCF-7. The following human neuroblastoma cell lines, purchased from ATCC, were tested: SK-N-BE, SK-N-SH, SK-N-MC, and GI-LI-N. All cell lines were grown in monolayer, in medium containing 10% fetal bovine serum (Invitrogen) in 5% CO2 at 37° C. The medium for A2780, A2780/HPR, IGROV-1, OVCA432, SKOV-3, T-47D, BT-20, MCF-7, GI-LI-N and SK-N-BE cells was RPMI 1640 (Cambrex, Verviers, Belgium) and the medium for OAW42, SK-N-MC and SK-N-SH cells was EMEM (ATCC).
(§2) For the growth inhibition assays, cells were seeded at a density of 3500 cells per well in 96 cluster tissue culture plates, and treated 24 hr after seeding with different concentrations of 4-oxo-4-HPR or 4-HPR. 4-oxo-4-HPR was dissolved in absolute ethanol and 4-HPR (obtained from Dr. J. A. Crowell —NCI Bethesda, Md., USA) was dissolved in Me2SO. […] Control cultures received the same amount of ethanol or Me2SO as the treated cultures. 72 hr after treatment cell number was estimated by using the sulforhodamine B assay according to Monks et al., (J. Natl. Cancer, 1991, 11: 757–766). The survival of treated cells was calculated for the various drug concentrations as percentage of the survival of control cells. The antiproliferative activity of 4-oxo-4-HPR and 4-HPR in each cell line, was tested in three separate experiments and the average values ±SD are reported in FIGS. 2, 3, and 4.

SK-N-BE = test: Growth inhibition (sulforhodamine B assay); format: cell-based, human; settings: for IC50: Homo sapiens, 72 h, read-out: 50% Inhibitory Concentrations (IC50) at 72 h
Procedure: as §1, §2

GI-LI-N = test: Growth inhibition (sulforhodamine B assay); format: cell-based, human; settings: for IC50: Homo sapiens, 72 h, read-out: 50% Inhibitory Concentrations (IC50) at 72 h
Procedure: as §1, §2

SK-N-MC = test: Growth inhibition (sulforhodamine B assay); format: cell-based, human; settings: for IC50: Homo sapiens, 72 h, read-out: 50% Inhibitory Concentrations (IC50) at 72 h
Procedure: as §1, §2

T-47D = test: Growth inhibition (sulforhodamine B assay), single agents and combination; format: cell-based, human; settings: for IC50: Homo sapiens, T47D, read-out: 50% Inhibitory Concentrations (IC50) at 72 h; for IC50 / Survival (% control cells): 72 h; for Survival (% control cells): single agent 1 μM
Procedure: as §1, §2
The antiproliferative effect of the combination of the two drugs, administered at one single dose, was also tested in other ovarian carcinoma cell lines and in breast tumor cell lines. The type of interaction between 4-HPR and 4-oxo-4-HPR was assessed by the method of Drevinko et al., as described in Cancer Biochem. Biophys., 1976, 1:187–195. For this evaluation the drugs were assumed to provide independent effects. The combination index (CI) was calculated as follows: survival fraction (SF) of the combination of 4-HPR+4-oxo-4-HPR divided by (SF 4-HPR×SF 4-oxo-4-HPR). The results for CI are defined as follows: CI=1 indicates an additive effect, CI<1 indicates a supra-additive effect and CI>1 indicates a sub-additive effect.

SKOV-3 = test: Growth inhibition (sulforhodamine B assay); format: cell-based; settings: Homo sapiens, read-out: 50% Inhibitory Concentrations (IC50) at 72 h
Procedure: (§3) The following human ovarian carcinoma cell lines were tested: A2780 was obtained from Dr. R. F. Ozols (National Cancer Institute, Bethesda, Md., USA); IGROV-1 was obtained from Dr. J. Benard (Villejuif, France); OVCA432 was obtained from Dr. R. C. Knapp (Boston, Mass., USA); OAW42 and SKOV-3 were purchased from ATCC (Rockville, Md., USA). A2780/HPR, a 4-HPR— resistant ovarian carcinoma cell line, was obtained in our laboratory by continuous exposure of A2780 cells to increasing concentrations of 4-EPR as previously described (Appierto et al., Br. J. Cancer, 2001, 84:1528–1534; Prinetti et al., J. Biol. Chem., 2003, 278:5574–5583). Briefly, cells surviving 60 transplants in 4-HPR —containing medium (3 transplants at 1 μM, 11 transplants at 2 μM, 8 transplants at 3 μM, and 38 transplants at 5 μM) were cloned by limiting dilution. […] Therefore, A2780/HPR cells were continuously maintained in 5 μM 4-HPR and seeded without 4-HPR in all the experiments performed to test their sensitivity to 4-oxo-4-HPR.
as §1, §2

OAW42 = test: Growth inhibition (sulforhodamine B assay); format: cell-based; settings: Homo sapiens, read-out: 50% Inhibitory Concentrations (IC50) at 72 h
Procedure: as §3, §1, §2

A2780/HPR = test: Apoptosis induction (Cell Death Detection ELISA, DNA fragmentation); format: cell-based, human; settings: 5 μM, 24 hr
Procedure: Although the mechanism of action of 4-HPR is not well understood, its tumor growth inhibitory effects have been attributed to apoptosis induction (Supino et al., Int. J. Cancer, 1996, 65:491–497). The apoptosis inducing effects of 4-oxo-4-HPR were compared with those of 4-HPR in the human ovarian carcinoma cell line A2780 and in its counterpart A2780/HPR, with induced resistance to 4-HPR. Apoptosis was evaluated by a Cell Death Detection ELISA Plus Assay Kit (Roche Diagnostic GmbH, Germany) according to the manufacturer's instructions. This assay quantitates the amount of cytoplasmic histone-associated DNA fragments which increases during apoptosis. Cells were seeded in 96-well cell culture plates and treated the day after with 5 μM 4-oxo-4-HPR or 4-HPR for 24 hr.

Row | IC50 (SK-N-BE; SK-N-BE) [nM] | IC50 (T-47D; T-47D) [nM] | IC50 (SKOV-3; SK-OV-3, SKOV-3, 72 h) [nM] | SMILES | cell sensitivity (FIG. 4), compared with 4-HPR, in words (SK-N-SH; 72 hr) | IC50 (SK-N-SH) [nM] | IC50 (SK-N-BE) [nM] | cell sensitivity (FIG. 4), compared with 4-HPR, in words (SK-N-BE; SK-N-BE, 72 hr) | cell sensitivity (FIG. 4), compared with 4-HPR, in words (GI-LI-N; GI-LI-N, 72 hr) | IC50 (GI-LI-N) [nM] | cell sensitivity (FIG. 4), compared with 4-HPR, in words (SK-N-MC; 72 hr) | IC50 (SK-N-MC) [nM] | IC50 (T-47D) [nM] | tumor cell survival (FIG. 3), compared with 4-HPR, in words (T-47D; T-47D, 72 hr) | Survival (% control cells) (T-47D; T-47D) | IC50 (SKOV-3; SK-OV-3, 72 h) [nM] | IC50 (OAW42; OAW-42, 72 h) [nM] | induction of apoptosis (DNA fragmentation, fold versus control cells) (A2780/HPR) | IC50 (GI-LI-N; GI-LI-N) [nM] | IC50 (OAW42; OAW-42, OAW42, 72 h) [nM]
1 |  |  |  | CC1=C(/C=C/C(C)=C/C=C/C(C)=C/C(=O)Nc2ccc(O)cc2)C(C)(C)CCC1=O [4-oxo-4-HPR, 4-oxo-N-(4-hydroxyphenyl)retinamide] | more sensitive to 4-oxo-HPR than to 4-HPR | 3000 | 1000 | more sensitive to 4-oxo-HPR than to 4-HPR | equally sensitive | 600 | more sensitive only at the lowest concentration tested (0.3 μM) | 400 | 2500 | similarly effective | 94 | 2000 | 3000 | induced apoptosis |  | 
2 | 5000 | 4000 | 8000 | CC1=C(/C=C/C(C)=C/C=C/C(C)=C/C(=O)Nc2ccc(O)cc2)C(C)(C)CCC1 [4-HPR, N-(4-hydroxyphenyl)retinamide, reference compound] |  | 5000 |  |  |  |  |  | 700 |  |  | 90 |  |  | had no effect | 700 | 10000
